Read-outs that look alike come from different tables or passages of the source.
Assays:
GIP-R = molecular target: T1, GIP-R (Homo sapiens, UniProt P48546); assay: HitHunter cAMP assay (GIP-R); type: cell-based; conditions: cAMP; for Emax: read-out: (Emax) GIP-R
T1 sequence (P48546 22-466): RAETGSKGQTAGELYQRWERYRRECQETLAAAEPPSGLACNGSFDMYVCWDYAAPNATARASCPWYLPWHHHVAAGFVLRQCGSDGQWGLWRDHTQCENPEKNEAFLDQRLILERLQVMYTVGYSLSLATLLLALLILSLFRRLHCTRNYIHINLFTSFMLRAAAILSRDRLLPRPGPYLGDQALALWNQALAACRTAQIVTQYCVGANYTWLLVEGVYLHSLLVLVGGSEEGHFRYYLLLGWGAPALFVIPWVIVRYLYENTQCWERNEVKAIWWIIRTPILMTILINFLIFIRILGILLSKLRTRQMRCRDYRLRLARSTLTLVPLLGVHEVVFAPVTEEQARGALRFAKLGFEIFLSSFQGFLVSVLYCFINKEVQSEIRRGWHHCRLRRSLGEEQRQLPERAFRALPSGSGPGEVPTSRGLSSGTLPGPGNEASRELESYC
Outline: (§1)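 Cells were resuspended in HBSS plus HEPES, IBMX (625 μM) and BSA, then dispensed with antibody at 10,000 per well. Agonists followed as 22-point twofold series, 30 min at room temperature. Antibody reagent and detection steps ran 1 h and overnight in the dark before luminescence.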

GLP-1R [1] = molecular target: T2, GLP-1R (Homo sapiens, UniProt P43220); assay: HitHunter cAMP assay (GLP-1R); type: cell-based; conditions: cAMP; for Emax: read-out: (Emax) GLP-1R
Outline: as §1

mice = assay: Glucose tolerance test (GTT); type: in vivo, mouse; conditions: 24 h GTT, s.c., dose range 2-5 nmol/kg, percent of vehicle
Method: Freestyle Lite glucometer and strips; compounds to be tested; sterilized glucose solution 200 mg/ml.
Compounds were diluted in PBS from the 1 mM DMSO stocks right before injection. Body weight and baseline blood glucose level for each mouse were measured. Tails were snipped using sterile scissors; blood from tails was used to measure glucose. For 0.25 h GTT, mice were fasted for 5-6 h and injected with compound subcutaneously 15 mins before glucose injection. For 4 h GTT, mice were fasted O/N for 16 h and injected with compound subcutaneously 4 h before glucose injection. For 16 h GTT, mice were injected with compound subcutaneously 16 h before glucose injection; food was removed at the same time. For 24 h GTT, mice were injected with compound subcutaneously 24 h before glucose injection; food was removed 5-6 h before glucose injection. 20% glucose in water was prepared; the solution was sterilized by 0.2 μm-filtration. An intraperitoneal injection of glucose (2 g/kg) was given to the mouse. Continued to take blood samples from the tail. Blood glucose was measured at 10, 20, 30, 40, 60, 90, and 120 minutes after glucose injection. Between each of these time points, the mouse was returned to its cage and monitored (at least 6 replicate mice were used for each time-point). The average glucose measurements were plotted as a function of time and the area under the curve (AUC) was determined.

GLP-1R [2] = molecular target: T2, GLP-1R; assay: PathHunter β-arrestin assay; type: cell-based
Outline: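 Agonist concentration–response (22 points, 2-fold steps, duplicates) was run on cells plated the previous day in BSA-supplemented (0.2%) medium. Stimulation lasted 90 min at 37 °C, followed by a 3 h dark incubation with detection reagent at room temperature and a luminescence read.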

[3] = Table 3A, read-out: EC50 GIP-R/nM
[4] = Table 3A, read-out: EC50 GLP-1R/nM
[5] = PathHunter β-arrestin assay, read-out: β-arrestin activity EC50
[6] = Table 3, read-out: EC50 GIP-R/nM

T2 sequence (P43220 24-463): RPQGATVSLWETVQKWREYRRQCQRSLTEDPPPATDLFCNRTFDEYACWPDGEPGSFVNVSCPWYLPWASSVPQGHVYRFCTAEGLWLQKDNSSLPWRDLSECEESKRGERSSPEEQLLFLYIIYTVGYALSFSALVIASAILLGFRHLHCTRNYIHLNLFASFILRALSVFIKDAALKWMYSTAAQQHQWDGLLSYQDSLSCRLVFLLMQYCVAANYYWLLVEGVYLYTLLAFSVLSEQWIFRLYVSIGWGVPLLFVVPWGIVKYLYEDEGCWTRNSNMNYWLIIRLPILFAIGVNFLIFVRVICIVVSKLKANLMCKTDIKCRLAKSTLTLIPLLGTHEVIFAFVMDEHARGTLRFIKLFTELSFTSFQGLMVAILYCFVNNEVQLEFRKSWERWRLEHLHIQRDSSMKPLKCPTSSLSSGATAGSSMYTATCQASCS

| Compound | Emax (GIP-R; Table 3A) [%] | EC50 (GIP-R; [3]) [nM] | Emax (GLP-1R [1]; Table 3A) [%] | EC50 (GLP-1R [1]; [4]) [nM] | AUC score (mice) | EC50 (GLP-1R [2]; [5]) [nM] | EC50 (GIP-R; EC50 GIP-R/nM, Table 3) [nM] | EC50 (GIP-R; EC50 GIP-R/nM, Table 3A) [nM] | Emax (GIP-R; Table 3) [%] | EC50 (GLP-1R [1]; EC50 GLP-1R/nM, Table 3) [nM] | EC50 (GLP-1R [1]; EC50 GLP-1R/nM, Table 3A) [nM] | Emax (GLP-1R [1]; Table 3) [%] | EC50 (GLP-1R [2]) [nM] | EC50 (GIP-R; [6]) [nM] | EC50 (GLP-1R [1]; Table 3, read-out: EC50 GLP-1R/nM) [nM] |
| --- | --- | --- | --- | --- | --- | --- | --- | --- | --- | --- | --- | --- | --- | --- | --- |
| CCCCCCCCCCCCCCCC(=O)N[C@@H](CCC(=O)NCCCC[C@H](NC(=O)[C@H](CO)NC(=O)[C@@H]1CCCN1C(=O)[C@@H]1CCCN1C(=O)[C@@H]1CCCN1C(=O)[C@H](C)NC(=O)CNC(=O)[C@H](CO)NC(=O)[C@H](CO)NC(=O)[C@@H]1CCCN1C(=O)CNC(=O)CNC(=O)[C@H](C)NC(=O)[C@H](CC(C)C)NC(=O)[C@H](CC(C)C)NC(=O)[C@H](Cc1c[nH]c2ccccc12)NC(=O)[C@H](CC(N)=O)NC(=O)[C@@H](NC(=O)[C@H](Cc1ccccc1)NC(=O)[C@H](CCC(=O)O)NC(=O)C(C)(C)NC(=O)[C@H](C)NC(=O)[C@H](C)NC(=O)[C@H](CCC(N)=O)NC(=O)[C@H](CCCCN)NC(=O)[C@H](CC(=O)O)NC(=O)[C@H](CC(C)C)NC(=O)[C@H](Cc1ccc(O)cc1)NC(=O)[C@@H](NC(=O)[C@H](CO)NC(=O)[C@H](Cc1ccc(O)cc1)NC(=O)[C@H](CC(=O)O)NC(=O)[C@H](CO)NC(=O)[C@@H](NC(=O)[C@H](Cc1ccccc1)NC(=O)[C@@H](NC(=O)CNC(=O)[C@H](CCC(=O)O)NC(=O)CCNC(=O)CN1CCCCCC1=O)[C@@H](C)O)[C@@H](C)O)[C@@H](C)CC)C(C)C)C(N)=O)C(=O)O [Compound 266] | 70 | 1 to 10 | 100 | < 0.1 | 2 (AUC score 2 = 26-50%) | < 10 |  |  |  |  |  |  |  |  |  |
| CCCCCCCCCCCCCCCC(=O)N[C@@H](CCC(=O)NCCCC[C@H](NC(=O)[C@H](CO)NC(=O)[C@@H]1CCCN1C(=O)[C@@H]1CCCN1C(=O)[C@@H]1CCCN1C(=O)[C@H](C)NC(=O)CNC(=O)[C@H](CO)NC(=O)[C@H](CO)NC(=O)[C@@H]1CCCN1C(=O)CNC(=O)CNC(=O)[C@H](C)NC(=O)[C@H](CC(C)C)NC(=O)[C@H](CC(C)C)NC(=O)[C@H](Cc1c[nH]c2ccccc12)NC(=O)[C@H](CC(N)=O)NC(=O)[C@@H](NC(=O)[C@H](Cc1ccccc1)NC(=O)[C@H](CCC(=O)O)NC(=O)C(C)(C)NC(=O)[C@H](C)NC(=O)[C@H](C)NC(=O)[C@H](CCC(N)=O)NC(=O)[C@H](CCCCN)NC(=O)[C@H](CC(=O)O)NC(=O)[C@H](CC(C)C)NC(=O)[C@H](Cc1ccc(O)cc1)NC(=O)[C@@H](NC(=O)[C@H](CO)NC(=O)[C@H](Cc1ccc(O)cc1)NC(=O)[C@H](CC(=O)O)NC(=O)[C@H](CO)NC(=O)[C@@H](NC(=O)[C@H](Cc1ccccc1)NC(=O)[C@@H](NC(=O)CNC(=O)[C@H](CCC(=O)O)NC(=O)CSCC(=O)NCCN1CCCCCC1=O)[C@@H](C)O)[C@@H](C)O)[C@@H](C)CC)C(C)C)C(N)=O)C(=O)O [Compound 41] | 75 |  | 100 to 104 |  | 4 (AUC score 4 = 76-100%) |  | 1 to 10 | 1 to 10 | 75 | 0.1 to 1 | 0.1 to 1 | 100 to 104 | > 1000 |  |  |
| CCCCCCCCCCCCCCCC(=O)N[C@@H](CCC(=O)NCCCC[C@H](NC(=O)[C@H](CO)NC(=O)[C@@H]1CCCN1C(=O)[C@@H]1CCCN1C(=O)[C@@H]1CCCN1C(=O)[C@H](C)NC(=O)CNC(=O)[C@H](CO)NC(=O)[C@H](CO)NC(=O)[C@@H]1CCCN1C(=O)CNC(=O)CNC(=O)[C@H](C)NC(=O)[C@H](CC(C)C)NC(=O)[C@H](CC(C)C)NC(=O)[C@H](Cc1c[nH]c2ccccc12)NC(=O)[C@H](CC(N)=O)NC(=O)[C@@H](NC(=O)[C@H](Cc1ccccc1)NC(=O)[C@H](CCC(=O)O)NC(=O)C(C)(C)NC(=O)[C@H](C)NC(=O)[C@H](C)NC(=O)[C@H](CCC(N)=O)NC(=O)[C@H](CCCCN)NC(=O)[C@H](CC(=O)O)NC(=O)[C@H](CC(C)C)NC(=O)[C@H](Cc1ccc(O)cc1)NC(=O)[C@@H](NC(=O)[C@H](CO)NC(=O)[C@H](Cc1ccc(O)cc1)NC(=O)[C@H](CC(=O)O)NC(=O)[C@H](CO)NC(=O)[C@@H](NC(=O)[C@H](Cc1ccccc1)NC(=O)[C@@H](NC(=O)CNC(=O)[C@H](CCC(=O)O)NC(=O)CSCC(=O)NCCN1C(=O)CSC1=O)[C@@H](C)O)[C@@H](C)O)[C@@H](C)CC)C(C)C)C(N)=O)C(=O)O [Compound 195] | 46 to 87 | 0.1 to 10 | 93 to 113 | 0.1 to 10 | 2 (AUC score 2 = 26-50%) | > 1000 |  |  | 46 to 87 |  |  | 93 to 113 |  | 0.1 to 10 |  |
| CCCCCCCCCCCCCCCC(=O)N[C@@H](CCC(=O)NCCCC[C@H](NC(=O)[C@H](CO)NC(=O)[C@@H]1CCCN1C(=O)[C@@H]1CCCN1C(=O)[C@@H]1CCCN1C(=O)[C@H](C)NC(=O)CNC(=O)[C@H](CO)NC(=O)[C@H](CO)NC(=O)[C@@H]1CCCN1C(=O)CNC(=O)CNC(=O)[C@H](C)NC(=O)[C@H](CC(C)C)NC(=O)[C@H](CC(C)C)NC(=O)[C@H](Cc1c[nH]c2ccccc12)NC(=O)[C@H](CC(N)=O)NC(=O)[C@@H](NC(=O)[C@H](Cc1ccccc1)NC(=O)[C@H](CCC(=O)O)NC(=O)C(C)(C)NC(=O)[C@H](C)NC(=O)[C@H](C)NC(=O)[C@H](CCC(N)=O)NC(=O)[C@H](CCCCN)NC(=O)[C@H](CC(=O)O)NC(=O)[C@H](CC(C)C)NC(=O)[C@H](Cc1ccc(O)cc1)NC(=O)[C@@H](NC(=O)[C@H](CO)NC(=O)[C@H](Cc1ccc(O)cc1)NC(=O)[C@H](CC(=O)O)NC(=O)[C@H](CO)NC(=O)[C@@H](NC(=O)[C@H](Cc1ccccc1)NC(=O)[C@@H](NC(=O)CNC(=O)[C@H](CCC(=O)O)NC(=O)CSCC(=O)NCCN1CC[C@H](O)C1=O)[C@@H](C)O)[C@@H](C)O)[C@@H](C)CC)C(C)C)C(N)=O)C(=O)O [Compound 66] | 11 | 100 to 1000 | 113 | < 0.1 | 2 (AUC score 2 = 26-50%) | > 1000 |  |  | 11 |  |  | 113 |  | 1 to 10 | < 0.1 |
| CCCCCCCCCCCCCCCC(=O)N[C@@H](CCC(=O)NCCCC[C@H](NC(=O)[C@H](CO)NC(=O)[C@@H]1CCCN1C(=O)[C@@H]1CCCN1C(=O)[C@@H]1CCCN1C(=O)[C@H](C)NC(=O)CNC(=O)[C@H](CO)NC(=O)[C@H](CO)NC(=O)[C@@H]1CCCN1C(=O)CNC(=O)CNC(=O)[C@H](C)NC(=O)[C@H](CC(C)C)NC(=O)[C@H](CC(C)C)NC(=O)[C@H](Cc1c[nH]c2ccccc12)NC(=O)[C@H](CC(N)=O)NC(=O)[C@@H](NC(=O)[C@H](Cc1ccccc1)NC(=O)[C@H](CCC(=O)O)NC(=O)C(C)(C)NC(=O)[C@H](C)NC(=O)[C@H](C)NC(=O)[C@H](CCC(N)=O)NC(=O)[C@H](CCCCN)NC(=O)[C@H](CC(=O)O)NC(=O)[C@H](CC(C)C)NC(=O)[C@H](Cc1ccc(O)cc1)NC(=O)[C@@H](NC(=O)[C@H](CO)NC(=O)[C@H](Cc1ccc(O)cc1)NC(=O)[C@H](CC(=O)O)NC(=O)[C@H](CO)NC(=O)[C@@H](NC(=O)[C@H](Cc1ccccc1)NC(=O)[C@@H](NC(=O)CNC(=O)[C@H](CCC(=O)O)NC(=O)CSCC(=O)NCCN1C(=O)CCC(C)(C)C1=O)[C@@H](C)O)[C@@H](C)O)[C@@H](C)CC)C(C)C)C(N)=O)C(=O)O [Compound 81] | 89 |  | 96 |  | 3 (AUC score 3 = 51-75%) |  | 0.1 to 1 | 0.1 to 1 | 89 | 0.1 to 1 | 0.1 to 1 | 96 | > 1000 |  |  |
